Results published in US9943569B2, “Method for preventing or reducing postoperative pulmonary complications” (OSAKA UNIVERSITY, priority 2015, dated 2018).

Assays:
Assay type in all cases: in vivo, human
[1] = test system: C-reactive protein (CRP); experiment: Postoperative change in serum CRP; conditions: n=20
Procedure: (§1) The primary endpoint of this study was SIRS duration. The secondary endpoints were postoperative complications, serum C-reactive protein (CRP) and IL-6 levels, time required to attain a positive nitrogen balance, and changes in body weight and body composition. Postoperative complications were defined as adverse events caused by surgery. Patients received an intravenous continuous infusion of ghrelin (0.5 μg/kg/h) or placebo (pure saline) for 5 days postoperatively. Ghrelin was diluted to a final volume of 48 mL with saline, and the solution was administered at a rate of 2 mL/h by using an infusion pump through a central venous catheter inserted into the right subclavian vein. The same amount of ghrelin was administered via intravenous infusion during the 5 days of treatment; the dose was calculated on the basis of body weight on the day before surgery. Patients in the placebo group received the corresponding infusion containing pure saline using same procedure.
(§2) Blood sampling was performed at the following 7 time points: before surgery; 2 hours after initiation of surgery (during thoracotomy); 4 hours after initiation of surgery (during laparotomy); and on PODs 1, 3, 7, and 10. Complete blood count was performed every day for at least 10 PODs. If the leukocyte count was not within the normal range on POD10, complete blood counts were performed daily until it was within the normal range for 3 consecutive days. SIRS was diagnosed according to the criteria proposed by the American College of Chest Physicians/Society of Critical Care Medicine Consensus Conference^32 and when 2 or more of the following criteria were present: (1) body temperature less than 36° C. or more than 38° C.; (2) heart rate more than 90 beats per minute; (3) tachypnea with more than 20 breaths per minute or an arterial partial pressure of carbon dioxide less than 32 mm Hg; and (4) white blood cell count less than 4000 cells/mm^3, >12,000 cells/mm^3, or an immature (band) form more than 10%. Postoperative complications were evaluated according to the Clavien-Dindo classification.^33 Grade I required no treatment, grade II required medical therapy, grade Ma required interventions but not general anesthesia, grade Mb required general anesthesia, grade IV represented life-threatening states that required intensive care, and grade V represented death.

[2] = test system: patients undergoing esophagectomy; experiment: Adverse events attributable to ghrelin administration in the phase II study; conditions: during the study period; 0.5 μg/kg/h continuous i.v. for 5 days, n=20
Procedure: as §1
In total, 40 enrolled patients were randomized into either the ghrelin group (20 patients) or the placebo group (20 patients). All patients received the planned dose of ghrelin or placebo during the planned period. […]

[3] = test system: patients undergoing esophagectomy; experiment: SIRS duration after esophagectomy, randomized placebo-controlled phase II study; conditions: ghrelin 0.5 μg/kg/h continuous i.v. infusion for 5 days, n=20
Procedure: Forty patients undergoing esophagectomy were randomly assigned to either the ghrelin group (n=20), which received continuous infusion of ghrelin (0.5 μg/kg/h) for 5 days, or the placebo group (n=20), which received pure saline for 5 days. The primary endpoint was SIRS duration. The secondary endpoints were the incidence of postoperative complications, time of a negative nitrogen balance, changes in body weight and composition, and levels of inflammatory markers, including C-reactive protein (CRP) and interleukin-6 (IL-6).
Forty patients with primary esophageal cancer who underwent esophagectomy were selected to participate in a randomized, placebo-controlled phase II study. The patients were selected based on the following eligibility criteria: (1) thoracic esophageal cancer treated by performing radical esophagectomy with gastric tube reconstruction; (2) age 20 to 75 years; (3) adequate functioning of major organs; (4) no other active malignancies; and (5) provision of written informed consent. […] The study was performed in a double-blind manner, and an independent researcher assessed outcomes.
The primary endpoint of this study was SIRS duration. […] The same amount of ghrelin was administered via intravenous infusion during the 5 days of treatment; the dose was calculated on the basis of body weight on the day before surgery. […]

[4] = Plasma ghrelin concentration (enzyme immunoassay), randomized placebo-controlled phase II study
Text: Forty patients with primary esophageal cancer who underwent esophagectomy were selected to participate in a randomized, placebo-controlled phase II study. The patients were selected based on the following eligibility criteria: (1) thoracic esophageal cancer treated by performing radical esophagectomy with gastric tube reconstruction; (2) age 20 to 75 years; (3) adequate functioning of major organs; (4) no other active malignancies; and (5) provision of written informed consent. The following exclusions criteria were used: (1) preoperative diagnosis of esophageal cancer invasion to the aorta or trachea and other organs; (2) patients with multiple cancer; (3) severe respiratory problems, such as emphysema; (4) patients with prior ischemic heart disease; (5) liver cirrhosis or active hepatitis; (6) renal failure requiring dialysis treatment; (7) poorly controlled diabetes mellitus or disease requiring insulin treatment; (8) consecutive use of steroids; and (9) mental disorder. The patients were randomly divided into a ghrelin group and a placebo group at a 1:1 ratio. The approach for thoracic manipulation (i.e., open or thoracoscopic surgery) was used as the only stratification factor. Group allocation was performed before the initiation of surgery. The study was performed in a double-blind manner, and an independent researcher assessed outcomes.
as §1, §2
Sampled blood was immediately transferred into a chilled glass tube containing disodium ethylenediaminetetraacetic acid for plasma sampling or a separating agent for serum sampling, and the samples were then centrifuged at 4° C. […]

[5] = test system: patients after esophagectomy; experiment: Phase I study of ghrelin administration during the postoperative period after esophagectomy
[6] = test system: patients undergoing esophagectomy; experiment: Changes in body weight and body composition (dual-energy X-ray absorptiometry); conditions: preoperatively vs POD10
Procedure: Dual-energy X-ray absorptiometry (Hologic QDR-2000; Hologic Inc, Waltham, Mass.) was used to assess total body composition, including lean body weight and fat body weight, of all participants.^35 These measurements were performed preoperatively and 10 days postoperatively with the subject in the supine position.
However, in the postoperative test, rapid turnover proteins used as nutritional markers, such as, transthyretin, transferrin, and retinol binding protein, were more highly retained in the ghrelin group than in the placebo group. This finding is consistent with the findings in previous studies that ghrelin prevented nutritional deterioration. […] We compared changes in weight and body composition between the 2 groups. During the study period, changes in body weight were monitored as a percentage of the weight on admission (preoperation).

[7] = dual-energy X-ray absorptiometry

SMILES: CCCCCCCC(=O)OC[C@H](NC(=O)[C@H](CO)NC(=O)CN)C(=O)N[C@@H](Cc1ccccc1)C(=O)N[C@@H](CC(C)C)C(=O)N[C@@H](CO)C(=O)N1CCC[C@H]1C(=O)N[C@@H](CCC(=O)O)C(=O)N[C@@H](Cc1cnc[nH]1)C(=O)N[C@@H](CCC(N)=O)C(=O)N[C@@H](CCCNC(=N)N)C(=O)N[C@H](C(=O)N[C@@H](CCC(N)=O)C(=O)N[C@@H](CCC(N)=O)C(=O)N[C@@H](CCCNC(=N)N)C(=O)N[C@@H](CCCCN)C(=O)N[C@@H](CCC(=O)O)C(=O)N[C@@H](CO)C(=O)N[C@@H](CCCCN)C(=O)N[C@@H](CCCCN)C(=O)N1CCC[C@H]1C(=O)N1CCC[C@H]1C(=O)N[C@@H](C)C(=O)N[C@@H](CCCCN)C(=O)N[C@@H](CC(C)C)C(=O)N[C@@H](CCC(N)=O)C(=O)N1CCC[C@H]1C(=O)N[C@@H](CCCNC(=N)N)C(=O)O)C(C)C [ghrelin]
- Serum CRP ([1]; POD1): 6.6 ± 2.0 mg/dL
- Serum CRP ([1]; POD3): 11.1 ± 6.6 mg/dL
- Serum CRP ([1]; POD3, listed as Ghrelin): 11.1 ± 6.6 mg/dL
- Serum CRP ([1]; POD7): 4.3 ± 3.6 mg/dL
- Serum CRP ([1]; POD7, listed as Ghrelin): 4.3 ± 3.6 mg/dL
- Serum CRP ([1]; POD10): 2.1 ± 2.3 mg/dL
- Serum CRP ([1]; POD10, listed as Ghrelin): 2.1 ± 2.3 mg/dL
- Serum CRP ([1]; Preoperative (baseline)): 0.3 ± 0.5 mg/dL
- adverse events attributable to ghrelin administration [2]: No adverse events attributable to ghrelin administration were observed
- SIRS duration [3]: 3.0 ± 2.9 days
- Total ghrelin ([4]; Postoperative (POD7)): 60.2 ± 34.1 imol/mL
- Total ghrelin ([4]; Preoperative (baseline)): 106.6 ± 76.8 imol/mL
- level at time molar at 2 h ([4]; human, plasma, iv, 0.5 ug/kg/h, 2 hours after the start of injection, 0.5 μg/kg/h continuous i.v. infusion): 0.743 ± 0.191 nM
- level at time molar at 4 h ([4]; human, plasma, iv, 0.5 ug/kg/h, 4 hours after the start of injection, 0.5 μg/kg/h continuous i.v. infusion): 0.711 ± 0.146 nM
- level at time molar at 1 postoperative day ([4]; human, plasma, iv, 0.5 ug/kg/h, POD1, during infusion 0.5 μg/kg/h): 0.749 ± 0.143 nM
- level at time molar at 3 postoperative day ([4]; human, plasma, iv, 0.5 ug/kg/h, POD3, during infusion 0.5 μg/kg/h): 0.737 ± 0.199 nM
- level at time molar at 7 postoperative day ([4]; human, plasma, iv, 0.5 ug/kg/h, POD7, after administration of ghrelin): 0.0602 ± 0.0341 nM
- level at time molar at 10 postoperative day ([4]; human, plasma, iv, 0.5 ug/kg/h, POD10, after administration of ghrelin): 0.063 ± 0.031 nM
- level at time molar ([4]; human, plasma, iv, 0.5 ug/kg/h, before ghrelin administration (baseline), ghrelin group n=20): 0.107 ± 0.0768 nM
- systemic inflammation relative to conventional management protocols without ghrelin [5]: tended to be suppressed
- effect on fundamental vital signs (blood pressure, heart rate, urine output, pulmonary and liver function) ([5]; postoperative intensive care management): did not affect fundamental vital signs
- percent decrease in total weight [6]: −3.5±2.7%
- percent decrease in body fat weight [6, 7]: −3.2±5.0%
- percent decrease in lean body weight [6, 7]: −4.2%±3.0
